Test results taken from patent US10336768B2, “Pyrimidine compounds and methods using the same” (Yuma Therapeutics, Inc., priority 2014, dated 2019).
Values after ≈ are worked out from the molar mass of the structure shown. Values joined by “and” are separate entries in the source; they are usually repeats but may differ in a detail not shown here. Equal entries are not always repeated. Where two headings read alike, the source gives them in different places. Marks after values point to notes of the source that are not given here.

How the values were obtained:
[1] = Solubility in pH 7.4 buffer; assay type: physicochemical; details: pH 7.4, aqueous buffer, pH of 7.4
Experimental: Compound solubility was determined in pH 7.4 buffer. Aqueous solubility of greater than or equal to about 0.5 μM (e.g., greater than or equal to about 1 μM, greater than or equal to about 2 μM, greater than or equal to about 5 μM, greater than or equal to about 10 μM, greater than or equal to about 20 μM, or greater than or equal to about 30 μM) may indicate a compound having acceptable solubility for medical use, e.g., for treatment of a neurodegenerative disorder.

[2] = Mouse pharmacokinetics, brain tissue levels (LC-MS/MS); assay type: in vivo; details: for concentration at 0.5 h: 0.50 h; for half-life: read-out: Half life (t1/2) (converted)
Experimental: Plasma and brain samples were taken pre-dose and at post dose time points of pre-dose, 15 and 30 minutes, 1, 2, and 8 hours. The pre-dose group was represented by 5 animals, whereas the post-dose groups were represented by 3 animals.
Bioanalysis of mouse plasma samples for compound 20 was conducted by protein precipitation and LC-MS/MS with compound 22 as the internal standard. The method was based on a ‘generic assay’ and some method development was conducted to tailor that assay to the particular compound and internal standard. The eventual non-GLP assay was first tested by analyzing a bioanalytical run with spiked mouse plasma samples. The qualification run passed by the run acceptance criteria (see below). Bioanalysis was then conducted of plasma sample extracts and of brain sample homogenate extracts, using a calibration and quality control samples spiked in mouse plasma. The assay is described below.
Evaluation of pharmacokinetic parameters was conducted by calculation from the mean concentration (n=5 pre-dose, n=3 post-dose) at each time point.

[3] = mouse brain tissue, Table 14, footnote: excluding IRN 12 result
[4] = mouse brain tissue, Table 15, footnote: including IRN 12 result
[5] = mouse, brain homogenate, mouse brain homogenate, read-out: Mean Group Concentration, Homogenate
[6] = mouse, brain, mouse brain tissue, read-out: Mean Group Concentration, Tissue
[7] = mouse, brain, mouse brain tissue, Table 14, footnote: excluding IRN 12 result
[8] = mouse, brain, mouse brain tissue, Table 15, footnote: including IRN 12 result

SMILES: Nc1nc(-c2c(Cl)cc(Cl)c3c2CCO3)c2[nH]ccc2n1 [compound 20, 4-(5,7-Dichloro-2,3-dihydrobenzofuran-4-yl)-5H-pyrrolo[3,2-d]pyrimidin-2-amine]
- solubility [1]: 30 µM (≈ 9.64 µg/mL)
- Homogenate concentration, individual animals ([2]; mouse brain homogenate, 15 minutes post dose (B_0.25), 0.00 = below LLOQ 0.988 ng/mL): 0.00 ^a ng/mL and 1250 ng/mL
- Homogenate concentration, individual animals ([2]; mouse brain homogenate, 30 minutes post dose (C_0.5)): 844 ng/mL and 1200 ng/mL
- Homogenate concentration, individual animals ([2]; mouse brain homogenate, 1 hour post dose (D_1)): 859 ng/mL and 789 ng/mL
- Homogenate concentration, individual animals ([2]; mouse brain homogenate, 2 hours post dose (E_2)): 385 ng/mL and 294 ng/mL
- Homogenate concentration, individual animals ([2]; mouse brain homogenate, 8 hours post dose (F_8)): 7.53 ng/mL and 1.83 ng/mL and 1.53 ng/mL
- Mean Group Concentration, Tissue ([2]; mouse brain tissue, 0.25 h, excluding IRN 12 result): ^a excluding IRN 12 result: 15772 ng/g.
- Mean Group Concentration, Tissue ([2]; mouse brain tissue, 0.25 h, incl. IRN 12): 10515 ^a ng/g
- AUC(0-inf) [2, 3]: 22900 ng·h/mL
- Kelimination [2, 3]: 0.769 per hour (h^−1)
- AUC(0-t) ([2]; mouse brain tissue, Table 14, footnote: excluding IRN 12 result, read-out: AUC(0-8 h)): 22900 ng·h/mL
- Tmax ([2]; mouse brain tissue, Table 14, footnote: excluding IRN 12 result, read-out: Tmax): 15 min
- Kelimination [2, 4]: 0.789 per hour (h^−1)
- Tmax [2, 4]: 15 min (h)
- Brain concentration, individual animals ([2]; mouse brain, 15 minutes post dose (B_0.25), 0.00 = below LLOQ): 0.00 ^a ng/g and 10870 ng/g
- Brain concentration, individual animals ([2]; mouse brain, 30 minutes post dose (C_0.5)): 7371 ng/g and 10480 ng/g
- Brain concentration, individual animals ([2]; mouse brain, 1 hour post dose (D_1)): 7486 ng/g and 6846 ng/g
- Brain concentration, individual animals ([2]; mouse brain, 2 hours post dose (E_2)): 3341 ng/g and 2518 ng/g
- Brain concentration, individual animals ([2]; mouse brain, 8 hours post dose (F_8)): 63.0 ng/g and 15.0 ng/g and 12.9 ng/g
- concentration at 0.25 h ([2]; mouse, brain homogenate, mouse brain homogenate, 0.25 h, incl. IRN 12, read-out: Mean Group Concentration, Homogenate): 1180 ng/mL
- concentration at 15 min ([2]; mouse, brain homogenate, mouse brain homogenate, 15 minutes post dose (B_0.25), 0.00 = below LLOQ 0.988 ng/mL, read-out: Homogenate concentration, individual animals): 2300 ng/mL
- concentration at 0.5 h [2, 5]: 1150 ng/mL
- concentration at 30 min ([2]; mouse, brain homogenate, mouse brain homogenate, 30 minutes post dose (C_0.5), read-out: Homogenate concentration, individual animals): 1400 ng/mL
- concentration at 1 h ([2]; mouse, brain homogenate, mouse brain homogenate, 1.00 h, read-out: Mean Group Concentration, Homogenate): 845 ng/mL
- concentration at 1 h ([2]; mouse, brain homogenate, mouse brain homogenate, 1 hour post dose (D_1), read-out: Homogenate concentration, individual animals): 888 ng/mL
- concentration at 2 h ([2]; mouse, brain homogenate, mouse brain homogenate, 2.00 h, read-out: Mean Group Concentration, Homogenate): 363 ng/mL
- concentration at 2 h ([2]; mouse, brain homogenate, mouse brain homogenate, 2 hours post dose (E_2), read-out: Homogenate concentration, individual animals): 410 ng/mL
- concentration at 8 h [2, 5]: 3.63 ng/mL
- concentration at 0.5 h [2, 6]: 9820 ng/g
- concentration at 1 h ([2]; mouse, brain, mouse brain tissue, 1.00 h, read-out: Mean Group Concentration, Tissue): 7280 ng/g
- concentration at 2 h ([2]; mouse, brain, mouse brain tissue, 2.00 h, read-out: Mean Group Concentration, Tissue): 3150 ng/g
- concentration at 8 h [2, 6]: 30 ng/g
- Cmax [2, 7]: 10500 ng/g
- half-life [2, 7]: 54 min
- Cmax [2, 8]: 15800 ng/g
- half-life [2, 8]: 52.8 min
- concentration at 15 min ([2]; mouse, brain, mouse brain, 15 minutes post dose (B_0.25), 0.00 = below LLOQ, read-out: Brain concentration, individual animals): 20700 ng/g
- concentration at 30 min ([2]; mouse, brain, mouse brain, 30 minutes post dose (C_0.5), read-out: Brain concentration, individual animals): 11600 ng/g
- concentration at 1 h ([2]; mouse, brain, mouse brain, 1 hour post dose (D_1), read-out: Brain concentration, individual animals): 7490 ng/g
- concentration at 2 h ([2]; mouse, brain, mouse brain, 2 hours post dose (E_2), read-out: Brain concentration, individual animals): 3600 ng/g
